Laboratory results: US20260250318A1, “COMPOSITIONS AND METHODS FOR CROSSING THE BLOOD BRAIN BARRIER” (VOYAGER THERAPEUTICS, INC., priority 2022, published 2026)

System: brains, heart, liver, muscle, and DRG of the NHPs
Assay: Maturation of TTM-001 and TTM-002 capsids, NGS enrichment in NHP tissues
Assay type: in vivo
Description: This Example describes maturation of the AAV9 capsid variants, TTM-001 (SEQ ID NO: 981 (amino acid) and 983 (DNA), comprising SEQ ID NO: 941 (encoded by SEQ ID NO: 942)) and TTM-002 (SEQ ID NO: 982 (amino acid) and 984 (DNA), comprising SEQ ID NO: […] (encoded by SEQ ID NO: 944)) in NHPs to further enhance their transduction and biodistribution in the central nervous system as well as other tissues, and evolve the AAV capsid variants to provide further cross-species compatibility. Two approaches were used to mature the TTM-001 and TTM-002 capsid sequences in order to randomize and mutate within and around the peptide insert comprised within loop IV of the capsid variant. […] In the first maturation approach, sets of three contiguous amino acids were randomized across the mutagenesis region in the TTM-001 and TTM-002 sequences, which spanned from position 450 to position 466, numbered according to SEQ ID NO: 981 and 982. In the second maturation approach, mutagenic primers were used to introduce point mutations at a low frequency, scattered across the mutagenesis region in the TTM-001 and TTM-002 sequences ranging from position 449 to position 466, numbered according to SEQ ID NO: 981 and 982. AAV capsid variants arising from each maturation approach for TTM-001 and TTM-002 were pooled together, for subsequent testing and characterization in NHPs.
The library of pooled matured AAV capsid variants generated using the first maturation approach and the second maturation approach for the TTM-001 and TTM-002 AAV capsid variants were injected into two NHPs. […] Following RNA recovery and RT-PCR amplification, a systematic NGS enrichment analysis was performed to calculate the fold enrichment ratio relative to an AAV9 control, and the peptides comprised within the variants were identified.
Following the RNA recovery and NGS analysis from the second maturation approach, approximately 680,000 capsid variants were identified. The 680,000 matured capsid variants were then filtered based on samples with a raw virus count greater than 10 and a coefficient of variance (CV) of less than 1, which was calculated for each peptide across the brain samples taken from the two NHPs. […] Using this filtering criteria, this led to approximately 64,000 matured capsid variants.

[1] = NHP DRG, NGS, relative to AAV9 control
[2] = NHP brain, NGS, relative to AAV9 control
[3] = NHP heart, NGS, relative to AAV9 control
[4] = NHP liver DNA, NGS, relative to AAV9 control
[5] = NHP liver RNA, NGS, TTM-001 and TTM-002 matured AAV capsid variants, relative to AAV9 control
[6] = NHP muscle, NGS, relative to AAV9 control

Row | Sequence | Fold Enrichment relative to AAV9, DRG (NHP) [1] | Fold Enrichment relative to AAV9, Brain (NHP) [2] | Fold Enrichment relative to AAV9, Heart (NHP) [3] | Fold Enrichment relative to AAV9, Liver DNA (NHP) [4] | Fold Enrichment relative to AAV9, Liver RNA (NHP) [5] | Fold Enrichment relative to AAV9, Muscle (NHP) [6] | Fold Enrichment relative to AAV9, DRG (NHP) (NGS fold-enrichment, DRG, NHP, relative to AAV9) | Fold Enrichment relative to AAV9, Brain (NHP) (NGS fold-enrichment, brain, NHP, relative to AAV9) | Fold Enrichment relative to AAV9, Heart (NHP) (NGS fold-enrichment, heart, NHP, relative to AAV9) | Fold Enrichment relative to AAV9, Liver DNA (NHP) (NGS fold-enrichment, liver DNA, NHP, relative to AAV9) | Fold Enrichment relative to AAV9, Liver RNA (NHP) (NGS fold-enrichment, liver RNA, NHP, relative to AAV9) | Fold Enrichment relative to AAV9, Muscle (NHP) (NGS fold-enrichment, muscle, NHP, relative to AAV9)
1 | KFFHGSGSPHSKAQNQQT | 0.000 fold | 0.000 fold | 0.000 fold | 0.897 fold | 15.412 fold | 0.000 fold |  |  |  |  |  | 
2 | KKHLGSGSPHSKAQNQQT | 0.000 fold | 0.000 fold | 0.000 fold | 0.658 fold | 18.521 fold | 0.000 fold |  |  |  |  |  | 
3 | KPARGSGSPHSKAQNQQT | 0.000 fold | 0.000 fold | 0.000 fold | 1.391 fold | 16.793 fold | 0.000 fold |  |  |  |  |  | 
4 | KPFLGSGSPHSKAQNQQT |  |  |  |  |  |  | 0.000 fold | 0.000 fold | 0.000 fold | 1.328 fold | 10.318 fold | 0.000 fold
5 | KPRFGSGSPHSKAQNQQT | 0.000 fold | 0.000 fold | 0.000 fold | 0.657 fold | 27.203 fold | 0.000 fold |  |  |  |  |  | 
6 | KPRWGSGSPHSKAQNQQT | 0.000 fold | 0.000 fold | 375.537 fold | 0.386 fold | 51.637 fold | 0.000 fold |  |  |  |  |  | 
7 | KRFSGSGSPHSKAQNQQT | 0.000 fold | 0.000 fold | 0.000 fold | 1.358 fold | 11.024 fold | 0.000 fold |  |  |  |  |  | 
8 | KRSYGSGSPHSKAQNQQT | 0.000 fold | 0.000 fold | 0.000 fold | 2.841 fold | 22.474 fold | 0.000 fold |  |  |  |  |  | 
9 | KRYNGSGSPHSKAQNQQT | 0.000 fold | 0.000 fold | 0.000 fold | 0.806 fold | 15.160 fold | 0.000 fold |  |  |  |  |  | 
10 | KSRRGSGSPHSKAQNQQT | 0.000 fold | 0.000 fold | 0.000 fold | 1.446 fold | 16.131 fold | 0.000 fold |  |  |  |  |  | 
11 | KTICGRGSPHSKAQNQQT | 0.000 fold | 0.000 fold | 0.000 fold | 2.171 fold | 18.923 fold | 0.000 fold |  |  |  |  |  | 
